Experiment: Study HDP-CDV-201: safety and tolerability (adverse events, laboratory abnormalities, discontinuations)
Format: in vivo, human (adult allogeneic HSCT recipients)
Protocol: Clinical Studies of HDP-CDV were performed and described in detail in the following Examples. For example, HDP-CDV-201 is a placebo-controlled, dose-escalating trial in HSCT CMV (R+) recipients, evaluating the ability of HDP-CDV to prevent or control CMV infection was carried out. Five cohorts were established in which participants or subjects received either placebo or the HDP-CDV orally, in doses ranging from 40 mg weekly (QW) to 200 mg twice weekly (BIW). Subjects who were post-HSCT were enrolled at the time of engraftment and randomized to HDP-CDV or placebo (3 to 1 ratio) and received blinded therapy until approximately 100 day post-transplantation. HDP-CDV doses were 40 mg QW, 100 mg QW, 200 mg QW, 200 mg BIW and 100 mg BIW. Escalation to the next dose was decided by the data monitoring committee after review of the safety data from the previous Cohort. Subjects who developed CMV disease or CMV infection requiring pre-emptive therapy with local standard of care were discontinued from blinded therapy and followed for 4 weeks. Subjects who completed treatment with blinded therapy were followed for 8 weeks post-therapy.
Data from Study HDP-CDV-201 also provided characterization of the safety and tolerability profile of HDP-CDV when administered for the prevention or control of CMV infection in high risk (R^+) post-HSCT adult subjects.
The Safety population (SAFETY) included all randomized subjects who took at least one dose of study treatment. This population was used to summarize safety outcomes based on the treatment actually received, in cases where a subject was treated contrary to the randomization schedule.
The safety and tolerability profile of HDP-CDV, including subject demographics and Baseline characteristics; the AE profile; and laboratory abnormalities of interest were analyzed in the cohorts followed in this investigation.
Subjects completing the treatment period received a full course of study medication; those completing the entire study attended visits through 8 weeks of follow up. Subjects who discontinued treatment may have done so for protocol specified reasons (e.g. development of clinically significant CMV infection requiring preemptive treatment with excluded anti-CMV medications) or for other reasons (e.g., withdrawal, adverse events, loss to follow-up). The disposition of subjects in Study HDP-CDV-201 during the double-blind, placebo-controlled treatment period (through Week 11) is listed by dosing Cohort in TABLE 23.
Adverse events were examined by severity to ensure that all safety signals were identified in this study population. Because of the frequency of events in HSCT recipients, particular attention was given to evaluation of Grade 3 […], 4 (severe), and 5 (fatal) adverse events.
Only those preferred terms for which at least one Grade 3 or higher event was experienced in any treatment group are listed. Cytomegalovirus-related AEs are excluded from this analysis.
HDP-CDV is a lipid conjugate of CDV. Because CDV is known to have adverse effects on renal function and bone marrow, decreased GFR and persistent neutropenia were identified as AEs of special interest. Key renal and hematological (TABLE 30) laboratory parameters were measured and listed below by Study HDP-CDV-201 treatment groups. TABLE 30 includes abnormal levels of serum creatinine, neutrophils, platelets, WBCs, and hemoglobin and includes data at Screening and during the treatment period.
A common metric for unit based dosing of medications is by weight (mg/kg). When the distribution of weights was examined for all subjects participating in the study, the median was 78 kg and the lower 25th percentile weight was approximately 65 kg, which translates to a cut-off of ˜3 mg/kg for a 200 mg total weekly dose. Based upon this approach, a cut-off of 3 mg/kg was used to assess the frequency of diarrhea and associated GI AEs reported for the subjects in Cohorts 3 or 4a (TABLE 40).

## CCCCCCCCCCCCCCCCOCCCOP(=O)(O)COC(CO)Cn1ccc(N)nc1=O (stereo not drawn) [HDP-CDV]
Cohort 3, >3.0 mg/kg/wk
  Abnormal ALT >3-5x ULN, Screening, subjects: 0
  Abnormal ALT >5-10x ULN, Any Time Between Week 2 and Week 10, subjects: 0
  Abnormal ALT >5-10x ULN, Screening, subjects: 0
  Abnormal ALT >10-20x ULN, Any Time Between Week 2 and Week 10, subjects: 0
  Abnormal ALT >10-20x ULN, Screening, subjects: 0
  Abnormal ALT >20x ULN, Any Time Between Week 2 and Week 10, subjects: 0
  Abnormal ALT >20x ULN, Screening, subjects: 0
Cohort 3, ≦3.0 mg/kg/wk
  Abnormal ALT >3-5x ULN, Any Time Between Week 2 and Week 10, subjects: 3 (12.5%)
  Abnormal ALT >3-5x ULN, Screening, subjects: 0
  Abnormal ALT >5-10x ULN, Any Time Between Week 2 and Week 10, subjects: 5 (20.8%)
  Abnormal ALT >5-10x ULN, Screening, subjects: 0
  Abnormal ALT >10-20x ULN, Any Time Between Week 2 and Week 10, subjects: 0
  Abnormal ALT >10-20x ULN, Screening, subjects: 0
  Abnormal ALT >20x ULN, Any Time Between Week 2 and Week 10, subjects: 1 (4.2%)
  Abnormal ALT >20x ULN, Screening, subjects: 0
Cohort 4
  Grade of hepatobiliary AE hepatomegaly, subject 4019: 1
  Grade of hepatobiliary AE hyperbilirubenemia, subject 4001: 2
  Grade of hepatobiliary AE hyperbilirubinemia, subject 4014: 4
  Grade of hepatobiliary AE hyperbilirubinemia, subject 4041: 1
  Grade of hepatobiliary AE jaundice, subject 4002: 1
  Grade of hepatobiliary AE worsening hyperbilirubinemia, subject 4004: 1
  Outcome of hepatobiliary AE hepatomegaly, subject 4019: recovered/resolved
  Outcome of hepatobiliary AE hyperbilirubenemia, subject 4001: not recovered/not
  Outcome of hepatobiliary AE hyperbilirubinemia, subject 4014: not recovered/not
  Outcome of hepatobiliary AE hyperbilirubinemia, subject 4041: recovered/resolved
  Outcome of hepatobiliary AE jaundice, subject 4002: not recovered/not
  Outcome of hepatobiliary AE worsening hyperbilirubinemia, subject 4004: recovered/resolved
  Relationship of hepatobiliary AE hepatomegaly, subject 4019: not related
  Relationship of hepatobiliary AE hyperbilirubenemia, subject 4001: not related
  Relationship of hepatobiliary AE hyperbilirubinemia, subject 4014: not related
  Relationship of hepatobiliary AE hyperbilirubinemia, subject 4041: not related
  Relationship of hepatobiliary AE jaundice, subject 4002: not related
  Relationship of hepatobiliary AE worsening hyperbilirubinemia, subject 4004: not related
  subjects discontinued due to neutropenia: 0 subject(s)
Cohort 4, 200 mg BIW
  ALT (Screening) >3 × ULN-5 × ULN, subjects: 2 (6.7%)
  ALT (Screening) >5 × ULN-10 × ULN, subjects: 2 (6.7%)
  ALT (Screening) >10 × ULN-20 × ULN, subjects: 0
  ALT (Screening) >20 × ULN, subjects: 0
  ALT (any time during therapy) >3 × ULN-5 × ULN, subjects: 4 (13.8%)
  ALT (any time during therapy) >5 × ULN-10 × ULN, subjects: 6 (20.7%)
  ALT (any time during therapy) >10 × ULN-20 × ULN, subjects: 2 (6.9%)
  ALT (any time during therapy) >20 × ULN, subjects: 0
  AST (Screening) >3 × ULN-5 × ULN, subjects: 1 (3.3%)
  AST (Screening) >5 × ULN-10 × ULN, subjects: 0
  AST (Screening) >10 × ULN-20 × ULN, subjects: 0
  AST (Screening) >20 × ULN, subjects: 0
  AST (any time during therapy) >3 × ULN-5 × ULN, subjects: 6 (20.7%)
  AST (any time during therapy) >5 × ULN-10 × ULN, subjects: 0
  AST (any time during therapy) >10 × ULN-20 × ULN, subjects: 0
  AST (any time during therapy) >20 × ULN, subjects: 0
  Alkaline Phosphatase (Screening) >2.5-5.0 × ULN, subjects: 0
  Alkaline Phosphatase (Screening) >5.0-20.0 × ULN, subjects: 0
  Alkaline Phosphatase (Screening) >20.0 × ULN, subjects: 0
  Alkaline Phosphatase (Screening) >ULN-[…] ULN, subjects: 7 (23.3%)
  Alkaline Phosphatase (any time during therapy) >2.5-5.0 × ULN, subjects: 0
  Alkaline Phosphatase (any time during therapy) >5.0-20.0 × ULN, subjects: 0
  Alkaline Phosphatase (any time during therapy) >20.0 × ULN, subjects: 0
  Alkaline Phosphatase (any time during therapy) >ULN-[…] ULN, subjects: 11 (37.9%)
  GI AE Leading to Study Drug Discontinuation: Abdominal pain, subjects: 1 (3.3%)
  GI AE Leading to Study Drug Discontinuation: Diarrhoea, subjects: 7 (23.3%)
  GI AE Leading to Study Drug Discontinuation: Dyspepsia, subjects: 0
  GI AE Leading to Study Drug Discontinuation: Nausea, subjects: 1 (3.3%)
  GI AE Leading to Study Drug Discontinuation: Vomiting, subjects: 0
  GI AEs Leading to Study Drug Discontinuation: Total subjects discontinued: 9 (30.0%)
  Gastrointestinal AE Abdominal discomfort, subjects: 0
  Gastrointestinal AE Abdominal distention, subjects: 1 (3.3%)
  Gastrointestinal AE Abdominal pain upper, subjects: 3 (10.0%)
  Gastrointestinal AE Abdominal pain, subjects: 11 (36.7%)
  Gastrointestinal AE Constipation, subjects: 3 (10.0%)
  Gastrointestinal AE Diarrhoea, subjects: 21 (70.0%)
  Gastrointestinal AE Diverticulum intestinal haemorragic, subjects: 0
  Gastrointestinal AE Dyspepsia, subjects: 1 (3.3%)
  Gastrointestinal AE Dysphagia, subjects: 0
  Gastrointestinal AE Epigastric discomfort, subjects: 0
  Gastrointestinal AE Flatulence, subjects: 3 (10.0%)
  Gastrointestinal AE GERD, subjects: 2 (6.7%)
  Gastrointestinal AE Gastritis, subjects: 0
  Gastrointestinal AE Haematochezia, subjects: 0
  Gastrointestinal AE Haemorroids, subjects: 2 (6.7%)
  Gastrointestinal AE Large intestinal ulcer, subjects: 0
  Gastrointestinal AE Nausea, subjects: 11 (36.7%)
  Gastrointestinal AE Odynophagia, subjects: 1 (3.3%)
  Gastrointestinal AE Oesophagitis, subjects: 0
  Gastrointestinal AE Retching, subjects: 0
  Gastrointestinal AE Vomiting, subjects: 8 (26.7%)
  Hepatobiliary clinical AE Cholelithiasis, subjects: 0
  Hepatobiliary clinical AE Hepatomegaly, subjects: 1 (3.3%)
  Hepatobiliary clinical AE Hyperbilirubinaemia, subjects: 5 (16.7%)
  Hepatobiliary clinical AE Jaundice, subjects: 1 (3.3%)
  Hepatobiliary clinical AE Liver injury, subjects: 1 (3.3%)
  Intensity of Gastrointestinal AEs, Grade 1, subjects: 3 (10.0%)
  Intensity of Gastrointestinal AEs, Grade 2, subjects: 13 (43.3%)
  Intensity of Gastrointestinal AEs, Grade 3, subjects: 10 (33.3%)
  Intensity of Gastrointestinal AEs, Grade 4, subjects: 0
  Intensity of Gastrointestinal AEs, Grade 5, subjects: 1 (3.3%)
  Serum ALT level, Median fold increase from Baseline at Follow-up Week 1: 1.87 fold
  Serum ALT level, Median fold increase from Baseline at Follow-up Week 4: 1.34 fold
  Serum ALT level, Peak Median fold increase from Baseline: 3.55 fold
  Subjects completed study: 6 (20.0%) n (%)
  Total Bilirubin (Screening) >1-[…] ULN, subjects: 1 (3.3%)
  Total Bilirubin (Screening) >1.5-3 × ULN, subjects: 0
  Total Bilirubin (Screening) >3-10 × ULN, subjects: 0
  Total Bilirubin (Screening) >10 × ULN, subjects: 0
  Total Bilirubin (any time during therapy) >1-[…] ULN, subjects: 3 (10.3%)
  Total Bilirubin (any time during therapy) >1.5-3 × ULN, subjects: 1 (3.4%)
  Total Bilirubin (any time during therapy) >3-10 × ULN, subjects: 1 (3.4%)
  Total Bilirubin (any time during therapy) >10 × ULN, subjects: 0
  incidence of diarrhea: 70%
Cohort 4, 200 mg BIW, N = 30
  Abdominal pain leading to study drug withdrawal: 1 (3.3%)
  All AEs leading to withdrawal: 18 (60.0%)
  Diarrhoea leading to study drug withdrawal: 7 (23.3%)

Reference: patent US20140303092A1 (CHIMERIX, INC., priority 2011, published 2014)
